We go through 59 compounds from the METLIN SMRT retention time set (Domingo-Almenara et al. 2019).

Molecules are shown by their SMILES.

This series in a line: gradient 5% acetonitrile 3 min, to 50% in 2 min, to 85% in 15 min, held 3 min, 100 µL/min. The settings on record: column: Zorbax Extend-C18 2.1 x 50 mm; eluents: water / acetonitrile, 0.1% formic acid. Summed up: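 The mobile phases were water and acetonitrile, each with 0.1% formic acid, pumped at 100 μL/min through a Zorbax Extend-C18 column (2.1 × 50 mm, 1.8 μm). Pure standards were injected as mixtures of ~100 molecules and detected by a quadrupole time-of-flight mass spectrometer in positive and negative ionization mode. Retention time came from computationally picked adduct peaks, each inspected by hand.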
For `CCOc1ccc(CNC(=O)C2=C3CCCN3c3ccc(F)cc3S2(=O)=O)cc1`, the RP-LC retention time was determined as 892 s.
For `CCn1cc(C(=O)NCc2ccccn2)c(S(=O)(=O)N2CCSCC2)n1`, the RP-LC retention time was 647 s.
The figure for `COCCN1C(=O)CC[C@]2(C(=O)N(C)Cc3cccnc3)CCCC[C@@H]12` is 544 s; for `Cc1cccc2nnc(N3CCCC(C(=O)NCCC(C)C)C3)n12` (centres undefined) it is 586 s.
The same measure for `CCOc1ccc(Nc2c(C(=O)N3CCSCC3)cnc3nc(C)ccc23)cc1`: 642 s.
The same measure for `CCc1nnc(-c2cc(NS(C)(=O)=O)c(C)s2)o1`: 747 s; for `Cc1cc(NC(=O)CSc2nnc(NC(=O)c3ccc4c(c3)OCO4)s2)no1`: 727 s.
On to `Cc1ccc(S(=O)(=O)N2CCCOC2CNC(=O)C(=O)NCCCn2ccnc2)cc1` (centres undefined), for which the RP-LC retention time was found to be 558 s.
The compound `Cn1nc(C(=O)N2CCCC(C(=O)NC3CC3)C2)c2c1CCN(C(=O)COc1ccc(F)cc1)C2` (centres undefined) registered an RP-LC retention time of 674 s.
The same measure for `Cc1nc(-c2cc(S(=O)(=O)Nc3ccc(Br)cc3C)c(C)s2)cs1`: 1100 s; for `CC(CCc1ccccc1)NC(=O)C1CCN(C(=O)C2Sc3ccccc3NC2=O)CC1` (centres undefined): 811 s.
The figure for `CCc1cccc(NC(=O)c2cc3sccc3n2Cc2ccc(Cl)cc2)c1` is 1340 s.
The figure for `COCCCNC(=O)N1CCN(Cc2nc3cc(C(=O)N(C)C)ccc3n2C)CC1` is 560 s.
`COc1cc(C(=O)N2CCN(c3cc(C)n4cnnc4n3)CC2)cc(OC)c1OC` gave an RP-LC retention time of 575 s.
The figure for `CCOC(=O)N1CCN(c2c(N3CCN(c4ccccn4)CC3)c(=O)c2=O)CC1` is 562 s.
The figure for `COc1ccc(NC(=O)C2CCN(C(=O)c3ncn4c3COC(c3ccc(OC)cc3)C4)CC2)cc1` (centres undefined) is 760 s; for `CCOC(=O)c1ccc(NC2=NS(=O)(=O)C(c3ccccc3)=C2C)cc1` it is 960 s; for `COc1ccccc1-c1noc(Cn2cnc3c(cnn3-c3ccc(Br)cc3)c2=O)n1` it is 1060 s.
The figure for `COc1ccc(CC(=O)Nc2ccc(-c3nc(Cn4cccn4)c(C)o3)cc2)cc1` is 838 s.
For the compound `CC(C)S(=O)(=O)N1CCOc2ccc(NC(=O)C3CC3)cc2C1`, the RP-LC retention time came out at 757 s.
`COC(=O)c1[nH]c(C)c(CN(C(=O)C2CCCCC2)C2CCCC2)c1C` yielded an RP-LC retention time of 1060 s.
`CC(C)CN(Cc1cccnc1)C1CN(S(=O)(=O)Cc2ccccc2)C1`: the RP-LC retention time was 719 s.
The same measure for `CC(NC(=O)C1CCN(c2cnn(Cc3ccccc3)c(=O)c2)CC1)c1ccccc1` (centres undefined): 803 s; for `Cc1ccc(Oc2nccnc2SCC(=O)Nc2cc(C)cc(C)c2)cc1`: 1200 s; for `Cc1ccc(Nc2c(-c3ccc(N(C)C)cc3)nc3ncccn23)cc1Cl`: 805 s.
The figure for `O=C(CC(F)(F)F)N1CCC(c2noc(-c3cccnc3)n2)C1` (centres undefined) is 643 s.
The figure for `Cc1cc(C)cc(NC(=O)NCC(c2cccnc2)c2cn(C)c3ccccc23)c1` (centres undefined) is 711 s; for `CN1C(=O)c2ccccc2Oc2ccc(C(=O)NCc3ccc(Cl)cc3)cc21` it is 957 s; for `CCn1cnc(S(=O)(=O)N2CCC(C(=O)NCc3ccc(OC(C)C)cc3)CC2)c1` it is 749 s.
`CC1=C(c2ccccc2)S(=O)(=O)N=C1N1CCCN(C(=O)c2ccc(Cl)s2)CC1` had an RP-LC retention time of 896 s.
The same measure for `Cn1cc(-c2nc(C(=O)Nc3ccccc3F)cs2)c2cccnc21`: 1040 s; for `O=C(NCc1csc(C2CCN(C(=O)c3ccccc3Cl)CC2)n1)C1CCC1`: 725 s.
The figure for `COc1ccc(OC)c(NC(=O)C(C)Oc2ccc(=O)n(-c3ccc(F)cc3)n2)c1` (centres undefined) is 816 s.
Compound `COc1cccc(-c2nc(C3CCN(S(=O)(=O)c4ccccc4)CC3)no2)c1` yielded an RP-LC retention time of 1070 s.
The same measure for `Cc1cc(N2CCOCC2)nc(N2CCN(C(=O)c3c(F)cccc3F)CC2)n1`: 1050 s; for `CN(C)C(CNC(=O)C(=O)NCc1ccc2c(c1)OCO2)c1ccsc1` (centres undefined): 556 s.
The same measure for `CCn1c(=O)n(CCc2ccccc2)c2cncnc21`: 715 s; for `CCC(C)NC(=O)N1CC=C(c2cn(C(C)C)c3ncccc23)CC1` (centres undefined): 821 s.
The compound `Cc1ccc2cc(CCC(=O)NCCCN3CCCCC3)c(=O)[nH]c2c1` returned an RP-LC retention time of 584 s.
The compound `COc1cccc(-n2c(=O)c3sccc3n(Cc3nc(-c4ccc(F)cc4)no3)c2=O)c1` showed an RP-LC retention time of 952 s.
Consider `O=C(Nc1nccs1)c1ccc2c(c1)CCCC2`, for which the RP-LC retention time turned out to be 869 s.
The figure for `CC(C)c1ccc(NC(=O)C2CCN(C(=O)c3ncn4c3COC(c3ccc(F)cc3)C4)CC2)cc1` (centres undefined) is 949 s; for `Fc1ccc(-c2nc(-c3cn(-c4ccccc4)nn3)no2)cc1` it is 607 s.
The same measure for `O=C(c1ccsc1)N1CCCC(OCc2nc(C3CC3)no2)C1` (centres undefined): 766 s.
The figure for `Cc1ccc(C(=O)NCCc2c[nH]c3ccc(Cl)cc23)cc1-n1nnc2cccnc21` is 903 s.
Compound `COc1ccc(NC(=O)N2CCC(c3nc(C(=O)N4CCOCC4)c(C)o3)CC2)c(C)c1` showed an RP-LC retention time of 663 s.
In turn, `CCN(CC)c1ccc(C2C(C#N)=C(N)Oc3n[nH]c(C)c32)cc1` (centres undefined) had an RP-LC retention time of 546 s.
The figure for `[C-]#[N+]/C(C(=O)Nc1ccc(C(F)(F)F)cc1)=C(\C)O` is 846 s.
The figure for `COc1cccc(NC(=O)C2CCN(S(=O)(=O)c3cc(C(=O)N(C)C)cs3)CC2)c1` is 760 s; for `CCN1CCN(CCCNC(=O)c2nnc(-c3ccc(S(=O)(=O)N4CCCC4)cc3)o2)CC1` it is 581 s.
The same measure for `CCc1ccc(-c2noc(Cn3c(=O)n(-c4ccccc4C)c(=O)c4sccc43)n2)cc1`: 1140 s; for `CCc1ccc(NC(=O)COc2cc(C)nc(N3CCN(c4ccccc4)CC3)n2)cc1`: 885 s.
Compound `O=C1CCSc2c1cccc2C(=O)N1CCOCC1` registered an RP-LC retention time of 601 s.
The same measure for `COC[C@@H]1CN(S(=O)(=O)Cc2ccccc2)C[C@H]1c1ccccn1`: 693 s; for `COc1cn(-c2ccc(F)cc2)nc1C(=O)NCCC1=CCCCC1`: 942 s.
`O=C(NCc1ccco1)c1nc2ccccn2c1-c1ccccc1` displayed an RP-LC retention time of 783 s.
The figure for `CCN1CCN(C(=O)CCC2CCCN(c3cc(NC4CC4)ncn3)C2)CC1` (centres undefined) is 555 s; for `O=C(c1ccc2c(c1)N(Cc1ccccc1)CCS2)N1CCN(c2ccccn2)CC1` it is 698 s; for `Cc1ccc(-c2nnc(-c3nn(C)c4c3CN(S(=O)(=O)Cc3ccccc3Cl)CC4)o2)cc1` it is 1020 s.
